Test results from article PMC6268061, “Investigation of the Biological Properties of (Hetero)Aromatic Thiosemicarbazones” (Molecules, 2012).
In brackets after ≈: the same amount, converted by molar mass. Where two headings read alike, the source gives them in different places.

How the values were obtained:
[1] = Lipophilicity determination using RP-HPLC (capacity factor, log k); format: physicochemical; conditions: C18, MeOH 55%/H2O 45%
Description: Reversed phase high performance liquid chromatography (RP-HPLC) methods have become popular and are widely used for lipophilicity measurements. The general procedure is the measurement of the directly accessible retention time under isocratic conditions using varying amounts of methanol as an organic modifier in the mobile phase using RP columns and calculating the logarithm of the capacity factors (log k). Log k is the logarithm of the capacity factors in chromatographic approaches that is related to the partitioning of a compound between a mobile and a (pseudo-)stationary phase. Log k is used as the lipophilicity index converted to log P scale.
A Waters Alliance 2695 XE HPLC separation module and a Waters Photodiode Array Detector 2996 (Waters Corp., Milford, MA, USA) were used. A Symmetry® C18 5 μm, 4.6 × 250 mm, Part No. WAT054275 (Waters Corp.) chromatographic column was used. The HPLC separation process was monitored using Empower™ 2 Chromatography Data Software, Waters 2009 (Waters Corp.). A mixture of MeOH p.a. (55%) and H2O-HPLC-Mili-Q Grade (45%) was used as a mobile phase. The total flow of the column was 0.9 mL/min, injection volume 30 μL, column temperature 30 °C and sample temperature 10 °C. A detection wavelength of 210 nm was chosen. A KI methanolic solution was used for the determination of dead time (tD). Retention times (tR) were measured in minutes. The capacity factors k were calculated using the Empower™ 2 Chromatography Data Software according to the formula k = (tR − tD)/tD, where tR is the retention time of the solute, whereas tD denotes the dead time obtained using an unretained analyte. Log k, calculated from the capacity factor k, is used as the lipophilicity index converted to log P scale.

[2] = system: photosynthetic electron transport (PET) in spinach chloroplasts; assay: Inhibition of photosynthetic electron transport (PET) in spinach chloroplasts; format: biochemical, Spinacia oleracea L.; conditions: DCPIP photoreduction
Procedure: Chloroplasts were prepared from spinach (Spinacia oleracea L.) according to Masarovicova and Kralova. The inhibition of the photosynthetic electron transport (PET) in spinach chloroplasts was determined spectrophotometrically (Genesys 6, Thermo Fisher Scientific, Waltham, MA, USA) using an artificial electron acceptor 2,6-dichlorophenol-indophenol (DCIPP) according to Kralova et al. and the rate of photosynthetic electron transport was monitored as a photoreduction of DCPIP. The measurements were carried out in a phosphate buffer (0.02 mol/L, pH 7.2) containing sucrose (0.4 mol/L), MgCl2 (0.005 mol/L) and NaCl (0.015 mol/L). The chlorophyll content was 30 mg/L in these experiments and the samples were irradiated (~100 W/m^2 with 10 cm distance) with a halogen lamp (250 W) using a 4 cm water filter to prevent warming of the samples (suspension temperature 22 °C). The compounds studied were dissolved in DMSO due to their limited water solubility. […] The inhibitory efficiency of the compounds studied was expressed by IC50 values, i.e., by the molar concentration of the compounds that caused a 50% decrease in the oxygen evolution rate relative to the untreated control.

[3] = system: Candida albicans ATCC 44859; assay: In vitro antifungal susceptibility, broth microdilution; format: cell-based; conditions: read-out: MIC (IC80) CA
Candida tropicalis 156 = assay: as above; format: cell-based; conditions: read-out: MIC (IC80) CT
Candida krusei ATCC 6258 = assay: as above; format: cell-based; conditions: Pichia kudriavzevii, read-out: MIC (IC80) CK
Candida glabrata 20/I = assay: as above; format: cell-based; conditions: Nakaseomyces glabratus, read-out: MIC (IC80) CG
[4] = system: Trichosporon beigelii 1188; assay: as above; format: cell-based; conditions: read-out: MIC (IC80) TB
Description: The broth microdilution test was used for the assessment of the in vitro antifungal activity of the synthesized compounds against Candida albicans ATCC 44859 (CA), Candida tropicalis 156 (CT), Candida krusei ATCC 6258 (CK), Candida glabrata 20/I (CG), Trichosporon beigelii 1188 (TB), Aspergillus fumigatus 231 (AF), Absidia corymbifera 272 (AC), and Trichophyton mentagrophytes 445 (TM). Fluconazole (FLU) was used as the standard since it is a clinically used antimycotic drug. The procedure was performed using a twofold dilution of the compounds in RPMI 1640 (Sevapharma a.s., Prague, Czech Republic) buffered to pH 7.0 with […] of 3-morpholino-propane-1-sulfonic acid (MOPS, Sigma, Prague, Czech Republic). The final concentrations of the compounds ranged from 500 to 0.975 μmol/L. Drug-free controls were included. The determination of minimum inhibitory concentration (MIC) was performed according to the Clinical and Laboratory Standards Institute (CLSI, formerly NCCLS) reference protocol M27-A2 for yeasts (IC80 value) and M38-A for moulds (IC50 value). IC80 and IC50 were defined as an 80% resp. 50% or greater reduction in growth in comparison with the control. The values of MICs were determined after 24 and 48 h of static incubation at 35 °C. The final MICs for T. mentagrophytes, were determined after 72 and 120 h of incubation.

[5] = system: Aspergillus fumigatus 231; assay: as above; format: cell-based; conditions: read-out: MIC (IC50) AF
Absidia corymbifera 272 = assay: as above; format: cell-based; conditions: read-out: MIC (IC50) AC
[6] = system: Trichophyton mentagrophytes 445; assay: as above; format: cell-based; conditions: read-out: MIC (IC50) TM
[7] = system: HCT-116 human colon cancer cells (p53 wild type); set-up: method as in PMID 22858101; conditions: footnote 3: anticancer activity described elsewhere ref [34],[44]; cited from earlier work
[8] = Trichosporon beigelii, 1188, 24 h
[9] = Trichosporon beigelii, 1188, 48 h
[10] = Aspergillus fumigatus, 231, 24 h
[11] = Aspergillus fumigatus, 231, 48 h
[12] = Lichtheimia corymbifera, 272, 24 h
[13] = Lichtheimia corymbifera, 272, 48 h
[14] = Trichophyton mentagrophytes, 445, 72 h
[15] = Trichophyton mentagrophytes, 445, 120 h

SMILES	log k [1]	IC50 [2] [µM]	MIC ([3]; ATCC44859, 24 h) [µM]	MIC ([3]; ATCC44859, 48 h) [µM]	MIC (Candida tropicalis 156; Candida tropicalis, 156, 24 h) [µM]	MIC (Candida tropicalis 156; Candida tropicalis, 156, 48 h) [µM]	MIC (Candida krusei ATCC 6258; ATCC6258, 24 h) [µM]	MIC (Candida krusei ATCC 6258; ATCC6258, 48 h) [µM]	MIC (Candida glabrata 20/I; 24 h) [µM]	MIC (Candida glabrata 20/I; 48 h) [µM]	MIC [4, 8] [µM]	MIC [4, 9] [µM]	IC50 [5, 10] [µM]	IC50 [5, 11] [µM]	IC50 (Absidia corymbifera 272; [12]) [µM]	IC50 (Absidia corymbifera 272; [13]) [µM]	IC50 [6, 14] [µM]	IC50 [6, 15] [µM]	IC50 [7] [µM]	other results
CN(C)C(=S)NN/C=C/c1ccc2ccccc2n1 [Compound 4b, (E)-2-(Quinolin-2-ylvinyl)-N,N-dimethylhydrazinecarbothioamide]	0.6184	1370	1.95 (≈ 0.531 µg/mL)	1.95 (≈ 0.531 µg/mL)	1.95 (≈ 0.531 µg/mL)	7.81 (≈ 2.13 µg/mL)	3.9 (≈ 1.06 µg/mL)	3.9 (≈ 1.06 µg/mL)	1.95 (≈ 0.531 µg/mL)	1.95 (≈ 0.531 µg/mL)	1.95 (≈ 0.531 µg/mL)	1.95 (≈ 0.531 µg/mL)	3.9	3.9	3.9	3.9	3.9	3.9	4.86 ± 1.48	
CNC(=S)NN=Cc1ccc2cccc(O)c2n1 [Compound 4e]	0.6236	302																	1.71 ± 0.34	MIC ([3]; ATCC44859, 24 h and 48 h, only one value presented (inactive)): > 125 µM; MIC (Candida tropicalis 156; Candida tropicalis, 156, 24 h and 48 h, only one value presented (inactive)): > 125 µM; MIC (Candida krusei ATCC 6258; ATCC6258, 24 h and 48 h, only one value presented (inactive)): > 125 µM; MIC (Candida glabrata 20/I; 24 h and 48 h, only one value presented (inactive)): > 125 µM; MIC ([4]; Trichosporon beigelii, 1188, 24 h and 48 h, only one value presented (inactive)): > 125 µM; IC50 ([5]; Aspergillus fumigatus, 231, 24 h and 48 h, only one value presented (inactive)): > 125 µM; IC50 (Absidia corymbifera 272; Lichtheimia corymbifera, 272, 24 h and 48 h, only one value presented (inactive)): > 125 µM; IC50 ([6]; Trichophyton mentagrophytes, 445, 72 h and 120 h, only one value presented (inactive)): > 125 µM
CNC(=S)NN=Cc1c(O)ccc2cccnc12 [Compound 4i]	0.6193		> 500	> 500	> 500	> 500	> 500	> 500	> 500	> 500	> 500	> 500	> 500	> 500	> 500	> 500	> 500	> 500	> 25	
CN(C)C(=S)NN=Cc1c(O)ccc2cccnc12 [Compound 4j]	0.5831	520	125 (≈ 34.3 µg/mL)	> 250	> 250	> 250	> 250	> 250	125 (≈ 34.3 µg/mL)	125 (≈ 34.3 µg/mL)	125 (≈ 34.3 µg/mL)	> 250	> 250	> 250	> 250	> 250	125	125	20.8 ± 5.34	
CCNC(=S)NN=Cc1c(O)ccc2cccnc12 [Compound 4k]	0.6539		> 500	> 500	> 500	> 500	> 500	> 500	62.5 (≈ 17.1 µg/mL)	500 (≈ 137 µg/mL)	> 500	> 500	> 500	> 500	> 500	> 500	62.5	62.5	> 25	
Oc1ccc2cccnc2c1C=NNC(=S)Nc1ccccc1 [Compound 4l]	0.6748		31.2 (≈ 10.1 µg/mL)	62.5 (≈ 20.1 µg/mL)	125 (≈ 40.3 µg/mL)	125 (≈ 40.3 µg/mL)	31.2 (≈ 10.1 µg/mL)	125 (≈ 40.3 µg/mL)	15.6 (≈ 5.04 µg/mL)	31.2 (≈ 10.1 µg/mL)	15.6 (≈ 5.04 µg/mL)	125 (≈ 40.3 µg/mL)	125	125	15.6	62.5	15.6	15.6	16.3 ± 1.69	
